From patent publication US11406683B2, “Compounds and therapeutics uses thereof” (Centauri Therapeutics Limited (GB/GB), priority 2017, dated 2022)
Bridge positions count the residues as written; N and C are the ends. Square brackets hold non-standard residues; d marks the D form. Side chains are listed from the residue outwards. Peptide text beside a SMILES is read from it. * marks the point of attachment. X1 = C[C@@H]1OC(OCCCC(=O)NCCNC(=O)COc2cc(OCC(=O)NCCNC(=O)CCCOC3O[C@@H](C)C(O)C(O)[C@@H]3O)cc(-c3cc(OCC(=O)NCCNC(=O)CCCOC4O[C@@H](C)C(O)C(O)[C@@H]4O)cc(C(=O)*)c3)c2)[C@@H](O)C(O)C1O; X3 = C[C@@H]1OC(OCCCC(=O)NCCNC(=O)COc2ccc(-c3cccc(C(=O)*)c3)cc2)[C@@H](O)C(O)C1O; Gly(octyl) = CCCCCCCC[C@H](N)C(=O)O; Nonanoyl = CCCCCCCCC(=O)*; X2 = CC[C@H](C)CCCCC(=O)*; Dab = NCC[C@H](N)C(=O)O; Ahx = NCCCCCC(=O)O

How the values were obtained:
[1] = system: E. coli K1:O18ac:H7 (ATCC 700973); experiment: Flow cytometric complement deposition assay with human serum; type: cell-based; settings: MFI (APC) over vehicle, 25% pooled human serum, 37° C., 20 min; for C3b deposition (5 μM, Average fold change): 5 μM compound, C3b/iC3b on bacterial surface
Protocol: Flow Cytometric Complement Deposition Assay with Human Serum
The assays were carried out in polystyrene 96-well U bottom plates (Costar). E. coli K1:O18ac:H7 (American Type Culture Collection, ATCC 700973) was grown in LB broth, Miller (Fisher BP1426-500) to late exponential phase. Subsequently, the bacteria were washed in Hank's Balanced Salt Solution with calcium and magnesium (HBSS+/+) and then resuspended in assay buffer, i.e., PBS with 1% bovine serum albumin (BSA, Sigma A2153) at a concentration of 2×10^9 CFU/mL. […] Subsequently, 150 μL ice-cold HBSS+/+ was added, the bacteria were pelleted and then washed once with 200 μL HBSS+/+, prior to adding 100 μL of pooled human serum (Innovate Research IPLA-CSER) as anti-Rhamnose antibody and complement source in PBS, 1% BSA to a final serum concentration of 25%. Bacteria were incubated at 37° C. for 20 min to allow for anti-Rhamnose binding to the compounds and complement deposition. 100 μL ice-cold HBSS+/+ was added to each well to stop the reaction. The bacteria were pelleted by centrifugation at 4° C. and the supernatants discarded. The bacteria were then washed two times with 200 μL refrigerated HBSS+/+, prior to adding 100 μL of APC-labelled anti-human C3b/iC3b antibody (Biolegend 846106; clone 3E7/C3b) at 1:25 dilution in PBS, 1% BSA and incubated at 4° C. for 45 min. After three final washes with 200 μL HBSS+/+, the bacteria were resuspended in HBSS+/+ and their fluorescence profile as an indicator for complement deposition evaluated on a Cytoflex flow cytometer (Beckman Coulter). The median fluorescent intensity (MFI) was recorded in the APC channels. Data from all samples were analysed using Kaluza software (Beckman Coulter).
The fold shift over background was calculated by dividing the MFI obtained in the presence of the Examples (5 μM) by the MFI obtained in the absence of Examples, i.e., in the presence of vehicle. The shift in fluorescence intensity (APC) occurred due to detection of covalently bound complement components C3b/iC3b to the surface of the bacteria.

[2] = system: Pseudomonas Aeruginosa PA01 (ATCC 15692); experiment: Flow cytometric antibody recruitment assay using an anti-Rhamnose antibody; type: cell-based; settings: 40 μM substance; MFI (PE) over vehicle control; human anti-Rhamnose IgG polyclonal antibody 42 μg/mL; binding to bacterial surface
Protocol: Flow Cytometric Antibody Recruitment Assay Using an Anti-Rhamnose Antibody
A secondary fluorescently labelled anti-IgG antibody was used to detect the anti-Rhamnose antibody binding.
The assays were carried out in polystyrene 96-well U bottom plates (Costar) blocked with 200 μl of Casein blocking buffer for 1 hour at room temperature (Fisher 37528). Pseudomonas Aeruginosa PA01 (ATCC 15692) was grown in LB broth, Miller (Fisher BP1426-500) to late exponential phase. Subsequently, the bacteria were washed once with Hank's Balanced Salt Solution with calcium and magnesium (HBSS+/+) and then resuspended in HBSS+/+ at a bacterial density of 2×10^9 colony forming units (CFU)/mL. […] The bacteria were then washed three times with 200 μL HBSS+/+, prior to adding 50 μL of the human anti Rhamnose IgG polyclonal antibody at a final concentration of 42 μg/mL in HBSS+/+. The samples were incubated for 1 hour at room temperature shaking at 450 rpm. The bacteria were washed three times as above, prior to adding 100 μL of a PE-labeled anti-human IgG Fc secondary antibody (Biolegend 409304) at 10 μg/mL in HBSS+/+ and incubating at room temperature for 1 hour at 450 rpm. After three final washes with 200 μL HBSS+/+, the bacteria were resuspended in 200 μL HBSS+/+ and evaluated for anti-Rhamnose antibody binding on a Cytoflex flow cytometer (Beckman Coulter). 50,000 counts of bacterial particles were sampled and the median fluorescent shift was recorded in the PE-A channel. Data from all samples were analysed using Kaluza software (Beckman Coulter).
The fold shift over background was calculated by dividing the Median Fluorescent Intensity (MFI) obtained in the presence of 40 μM of the Example compounds by the MFI value obtained in the vehicle controls, i.e., the absence of Examples. The higher the fold shift over background, the more anti-Rhamnose was bound to the bacterial surface. The shift in fluorescence intensity (PE) occurs due to the binding event at each end of the molecule.

| SMILES | C3b deposition (5 μM, Average fold change) [1] [fold change] | IgG Recruitment (40 μM, Average fold change) [2] [fold change] | C3b deposition (Average fold change) ([1]; 20 μM PmxB) [fold change] |
| --- | --- | --- | --- |
| CCCCCCCC[C@H](NC(=O)CCCCCNC(=O)CCCCCNC(=O)c1cccc(-c2ccc(OCC(=O)NCCNC(=O)CCCOC3O[C@@H](C)C(O)C(O)[C@@H]3O)cc2)c1)C(=O)N[C@@H](CCN)C(=O)N[C@H](C(=O)N[C@@H](CCN)C(=O)N[C@H]1CCNC(=O)[C@H]([C@@H](C)O)NC(=O)[C@H](CCN)NC(=O)[C@H](CCN)NC(=O)[C@H](CC(C)C)NC(=O)[C@@H](Cc2ccccc2)NC(=O)[C@H](CCN)NC1=O)[C@@H](C)O (some centres unmarked) [Example 1] ({X3-Ahx-Ahx}-[Gly(octyl)][Dab]T[Dab][Dab][Dab][dF]L[Dab][Dab]T; lactam 5-C) | 109.8 | 77.7 | – |
| CCCCCCCC[C@H](NC(=O)CCCCCNC(=O)CCCCCNC(=O)c1cc(OCC(=O)NCCNC(=O)CCCOC2O[C@@H](C)C(O)C(O)[C@@H]2O)cc(-c2cc(OCC(=O)NCCNC(=O)CCCOC3O[C@@H](C)C(O)C(O)[C@@H]3O)cc(OCC(=O)NCCNC(=O)CCCOC3O[C@@H](C)C(O)C(O)[C@@H]3O)c2)c1)C(=O)N[C@@H](CCN)C(=O)N[C@H](C(=O)N[C@@H](CCN)C(=O)N[C@H]1CCNC(=O)[C@H]([C@@H](C)O)NC(=O)[C@H](CCN)NC(=O)[C@H](CCN)NC(=O)[C@H](CC(C)C)NC(=O)[C@@H](Cc2ccccc2)NC(=O)[C@H](CCN)NC1=O)[C@@H](C)O (some centres unmarked) [Example 2] ({X1-Ahx-Ahx}-[Gly(octyl)][Dab]T[Dab][Dab][Dab][dF]L[Dab][Dab]T; lactam 5-C) | 148.1 | 3.4 | – |
| CCCCCCCCC(=O)N[C@@H](CCNC(=O)CCCCCNC(=O)CCCCCNC(=O)c1cccc(-c2ccc(OCC(=O)NCCNC(=O)CCCOC3O[C@@H](C)C(O)C(O)[C@@H]3O)cc2)c1)C(=O)N[C@H](C(=O)N[C@@H](CCN)C(=O)N[C@H]1CCNC(=O)[C@H]([C@@H](C)O)NC(=O)[C@H](CCN)NC(=O)[C@H](CCN)NC(=O)[C@H](CC(C)C)NC(=O)[C@@H](Cc2ccccc2)NC(=O)[C@H](CCN)NC1=O)[C@@H](C)O (stereo partly drawn) [Example 5] (Nonanoyl-[Dab]([Ahx-Ahx-X3])T[Dab][Dab][Dab][dF]L[Dab][Dab]T; lactam 4-C) | 20.5 | 8.45 | – |
| CC[C@H](C)CCCCC(=O)N[C@@H](CCN)C(=O)N[C@H](C(=O)N[C@@H](CCN)C(=O)N[C@H]1CCNC(=O)[C@H]([C@@H](C)O)NC(=O)[C@H](CCN)NC(=O)[C@H](CCN)NC(=O)[C@H](CC(C)C)NC(=O)[C@@H](Cc2ccccc2)NC(=O)[C@H](CCN)NC1=O)[C@@H](C)O [Polymyxin B, reference compound] (X2-[Dab]T[Dab][Dab][Dab][dF]L[Dab][Dab]T; lactam 4-C) | – | 1.58 | 24.535 |
